Results from US12378211B2, “Carbonic anhydrase inhibitors and antibiotics against multidrug resistant bacteria” (Purdue Research Foundation, priority 2018, dated 2025).
Where two headings read alike, the source gives them in different places.

What was measured:
Assay type in all cases: cell-based
[1] = system: Enterococcus faecium E417-HM-965; test: MIC of CAIs in BHIB and TSB; conditions: Enterococcus faecium, read-out: MIC
Protocol: (§1) The minimum inhibitory concentrations (MICs) of CAIs were tested against clinical isolates of vancomycin sensitive and vancomycin resistant Enterococci strains as per the guidelines provided by the Clinical and Laboratory Standards Institute (CLSI). The selected strains of Enterococci were streaked on Tryptic Soy Agar (TSA) plates and let grow for 24 hours at 37° C. Afterwards, a bacterial solution equivalent to 0.5 McFarland standard was prepared and diluted in tryptone soy broth (TSB) or brain heart infusion broth (BHIB) to achieve a bacterial concentration of about 5×10^5 CFU/mL and seeded in 96-well well plates. Compounds and control drugs were added in the first row of the 96-well plates and serially diluted along the plates. Plates were then incubated aerobically at 37° C. for 18-20 hours. MICs reported in Table 5 are the minimum concentration of the compounds/control drugs that could inhibit completely the visual growth of the bacteria.

[2] = system: Enterococcus faecium Patient #2-1-NR-31909; test: MIC of CAIs in BHIB and TSB; conditions: Enterococcus faecium, read-out: MIC
Protocol: as §1

[3] = system: Enterococcus fecalis Strain SF 24397 NR31970; test: MIC of CAIs in BHIB and TSB; conditions: Enterococcus, read-out: MIC
Protocol: as §1

[4] = system: Enterococcus faecalis—S613 HM-334; test: MIC of CAIs in BHIB and TSB; conditions: Enterococcus, read-out: MIC
Protocol: as §1, with “bacteria. The MIC values of CAIs against the tested VRE strains were higher in BHIB than in TSB. This may be due to binding of these drugs to proteins. […] They inhibited the VRE strains at MIC values ranging from 1 to 4 μg/mL.” for “bacteria.”

[5] = system: Enterococcus faecalis-S613 HM-334; test: MIC in presence of 4% human serum albumin; conditions: Enterococcus; TSB supplemented with 4% human serum albumin; read-out: MIC
Protocol: as §1, with “against” for “against clinical isolates of vancomycin sensitive and”, “resistant Enterococcus faecalis—S613 HM 334 strain” for “resistant Enterococci strains”, “selected strain was” for “selected strains of Enterococci were”, “(TSA) plate” for “(TSA) plates”, “(TSB) supplemented with 4% human serum albumin (HAS)” for “(TSB) or brain heart infusion broth (BHIB)”, “in table (6)” for “in Table 5”

MIC ([1]; E417HM965, BHIB): 16 µg/mL
MIC ([1]; E417HM965, TSB, Table 5): 2 µg/mL
MIC ([2]; BHIB): 64 µg/mL
MIC ([2]; TSB, Table 5): 2 µg/mL
MIC ([3]; BHIB): > 128 µg/mL
MIC ([3]; TSB, Table 5): 2 µg/mL
MIC ([4]; BHIIB): > 128 µg/mL
MIC ([4]; TSB, Table 5): 1 µg/mL
MIC [5]: > 256 µg/mL
SMILES: CCOc1ccc2nc(S(N)(=O)=O)sc2c1 [Ethoxzolamide]
